Test system: interaction between SnRK1A and SKINs
Assay: Rice embryo GAL4-UAS two-hybrid assay (luciferase)
Type: cell-based
Details: rice embryos, −S medium containing 1 μM ABA
Description: FIG. 2. The N-terminus of SKIN interacts with the kinase domain of SnRK1A. For the GAL4-UAS two-hybrid assay, rice embryos were co-transfected with effector and reporter plasmids, incubated in −S medium for 24 h, and assayed for luciferase activity. The luciferase activity in rice embryos bombarded with effectors Ubi:GAD, Ubi:GBD and reporter 5XUAS-35S mp:Luc was set to 1×, and other values were calculated relative to this value. Error bars indicate the SE for three replicate experiments. Significance levels: * p<0.1, ** p<0.05. The Y axis indicates the relative luciferase activity with different constructs. (A) Plasmid constructs. (B) Rice embryos were co-transfected with effectors Ubi:GAD-SnRK1A and Ubi:GBD-SKIN (wild type or truncated) and reporter 5XUAS-35S mp:Luc. (C) Rice embryos were co-transfected with effectors Ubi:GAD-SnRK1A [wild type, kinase domain (KD) or regulatory (RD)], Ubi:GBD-SKIN and reporter 5XUAS-35S mp:Luc. (D) Rice embryos were co-transfected with effectors Ubi:GAD-SnRK1A and Ubi:GBD-SKIN and reporter 5XUAS-35S mp:Luc, and incubated in −S medium containing 1 μM ABA.
Rice embryos were prepared for particle bombardment as described (Chen et al., 2006). The rice embryos were bombarded with reporter, effectors and internal control at a ratio of 4:2:1 for single effector or 4:2:2:1 for two effectors. […]

`CC1=CC(=O)CC(C)(C)[C@@]1(O)/C=C/C(C)=C\C(=O)O` [ABA, abscisic acid] was tested, and the “Effect on the interaction between SnRK1A and SKINs” value was “enhanced”.

Source: patent US20180273970A1, “PLASMID, TRANSFORMED PLANT CELL AND TRANSGENIC PLANT COMPRISING THE SAME, AND METHODS FOR PREPARING A TRANSGENIC PLANT AND FOR INCREASING YIELD OF A PLANT UNDER ABIOTIC STRESSES” (Academia Sinica, priority 2014, published 2018)
